As usually defined, the MIC is the lowest concentration that inhibits growth of the organism. Read a low MIC as a more susceptible organism.

Where no end group is shown, it is not given here.

Holding throughout (type): cell-based
Holding throughout (conditions): compound alone

The test system of experiment [1] is isolates of strain MR-PSA (multiply resistant) Pseudomonas aeruginosa. The experiment in a line: MIC in microtiter plates, Mueller-Hinton broth (Examples 2 and 3). The method, then: For Examples 2 and 4, microorganisms employed in the assays were grown according to the procedure described in Stutman, et al., Antimicrobial Agents in Chemotherapy, Vol. 34, July 1990.
The final assays were then conducted in microtiter plates containing Mueller-Hinton broth 10^5 organisms were added to each well.
The minimal inhibitory concentrations, (MIC's), according to the procedure of Example 2, were tested against various isolates of strain MR-PSA, of Pseudomonas aeruginosa, except that Peptide 4 replaces Peptide 1.

Experiment [2] concerns P.aeruginosa strain 27853. The experiment in a line: MIC in trypticase soy broth, test wells (Example 1). The method, then:
(§1) Approximately 1-5×10^5 colony forming units (CFU's) of P.aeruginosa strain 27853 or of P.aeruginosa strain 107 (which is gentamicin - resistant) dispersed in 100 ul of trypticase soy broth (TSB) were added to each of a series of test wells. […] For purposes of this example, Peptide 1 is amide-terminated Magainin II, Peptide 2 is of the following structural formula: […]

For experiment [3], the system named is P.aeruginosa strain 107 (which is gentamicin - resistant). The experiment is described as above. The method, then: as §1

For GIGKFLHSAKKFGKAFVGEIMNS-NH2 [Peptide 1], the MIC in experiment [1] (Table 2, MR-PSA isolate 1) was 32 µg/mL; in experiment [1] (Table 2, MR-PSA isolate 2), more than 256 µg/mL; in experiment [1] (Table 2, MR-PSA isolate 3), 32 µg/mL; in experiment [1] (Table 2, MR-PSA isolate 4), 256 µg/mL; in experiment [2], more than 32 µg/mL; in experiment [3], more than 32 µg/mL.

The values above are taken from patent US5208220A, “Composition and treatment with biologically active peptides and antibiotics which inhibit DNA gyrase” (priority 1991, dated 1993).
